Source: US11156599B2, “Assay for telomere length regulators” (The Johns Hopkins University, priority 2015, dated 2021)

Columns and labels:
Assay type in all cases: cell-based, mouse
SL13 cells [1] = assay: Cell cycle profile by propidium iodide staining and flow cytometry; conditions: 200 ng/ml colcemid or 2.5 mM thymidine, 24 hrs
Experimental: SL13 cells were grown in DMEM (Gibco) supplemented with 1% Penicillin/Streptomycin/Glutamine and 10% Tet system approved FBS (Clontech, #631107). Final concentration of 2 μg/ml of doxycycline was added in the media to induce I-Sce1 expression. Typically cells were collected post 48 hours of doxcycline treatment. To arrest cells in different cell cycle phases, cells were treated with either final concentration of 200 ng/ml colcemid (Gibco KaryoMAX Colcemid Solution, #15212-012) or 2.5 mM Thymidine (Sigma, #T-1895).
Cell cycle phase was accessed by DNA content using propidium iodide (PI) staining and flow cytometry analysis. Briefly, cell pellets were washed with 1× PBS at 500× g for 5 minutes and resuspended in 500 μl of 1× PBS. 4.5 ml of ice cold 70% ethanol was added drop by drop, and incubated overnight at 4° C. Samples were washed with 5 ml 1× PBS and incubated with 500 μl of PI-Triton resuspension buffer at room temperature for ≥30 minutes protected from light. PI-Triton resuspension buffer was made of 0.1% Triton™ X-100, 200 μg/ml RNase A, 20 μg/ml PI (Invitrogen, #P3566) in 1× PBS. PI-stained samples were transferred to strainer tubes (BD Falcon) and run on FACSCalibur™ flow cytometry (BD Biosciences). Cell cycle profiles were analyzed utilizing the Dean-Jet-Fox™ model in FlowJo™ software (FlowJo™).

HA-tagged I-Sce1 = assay: Quantitative RT-PCR of HA-tagged I-Sce1 expression; conditions: 200 ng/ml colcemid or 2.5 mM thymidine, 48 hrs; normalized to HPRT
Experimental: To measure HA-tagged I-Sce1 expression levels, quantitative RT-PCR was performed as described in 2.4.5. Primers used are the following: HA-ISce1-FOR, 5′-[…]-3′ (SEQ ID NO: 143); ISce1-REV2, 5′-[…]-3′ (SEQ ID NO: 144); HPRT_F, 5′-[…]-3′ (SEQ ID NO: 145); HPRT_R, 5′-[…]-3′ (SEQ ID NO: 146).

SL13 cells [2] = assay: Southern blot of genomic DNA for de novo telomere addition smear in arrested cells; conditions: cells arrested in G1 phase versus control cells and G2/M cells
Text: To examine the in vivo chr4 cleavage and de novo telomere addition, genomic DNA extracted from SL13 cells arrested at different cell phases and treated with doxycycline for various time points were digested with Ncol restriction enzyme (NEB) and further analyzed by Southern blot as described previously in Example 1 with a random primed α-32P-labeled HYG probe.

[3] = tested on: de novo telomere addition on chr4 in SL13 cells; assay: ADDIT assay (Addition of de novo initiated telomeres): modified STELA PCR and PacBio sequencing
Text: To examine potential mammalian genes that regulate telomere length, an assay was developed that allows visualization of telomere addition in vivo, referred here as ADDIT (Addition of de novo initiated telomeres). In a chromosomally stable CASTEiJ mouse fibroblast cell line, chromosome 4 (chr4) was modified to generate an internal 480 bp telomere ‘seed’ sequence followed by a unique I-Sce1 endonuclease cut site (FIG. 1A). The length of seed sequence was based on an early study showing that 400 bp of telomere repeats can act as functional telomeres. Using Southern blot analysis, two independent HYG-positive clones were identified, clone 1L and 1M, with a single chr4 allele correctly modified (data not shown).
To better visualize the telomere addition on the I-Sce1 cut telomere seed, the single telomere length analysis (STELA) (Baird et al., 2004, Hum Mol Genet 13, 1515-1524), a PCR-based approach that can measure telomere lengths from individual chromosome ends was modified. The STELA assay employs annealing and ligation of a linker, ‘telorette’, with TTAGGG and a unique 20-nucleotide sequence to the G-rich 3′ telomere overhang followed by PCR of the telomere from a ‘teltail’ primer and primer in the HYG sequence on the engineered chromosome (FIG. 2). The PCR product lengths will be proportional to the telomere lengths at the cleaved chr4 allele. As a control, to amplify the un-extended cut chromosome in vitro, a different linker, ‘IScerette’ was designed, which has a 4-nt homology to the 4-nt 3′ overhang created by the I-Sce1 endonuclease at the cleavage site (FIG. 2). […] This in vitro IScerette PCR product serves as a marker for the base line length of the cut, unextended telomere seed sequence.
To further verify the longer STELA PCR products represent de novo telomere addition, the PCR products were sequenced with Pacific Biosciences (PACBIO®) next generation sequencing technology. The PACBIO® platform produces longer reads and is less GC bias compared to other next generation sequencing platforms. While errors were present in the sequence as expected, the telomere repeats were easily recognizable. All of the reads from the PACBIO® were filtered and only those that had unique HYG sequence followed by telomere sequence and the ‘teltail’ primer sequence were examined. This assures that only full length of STELA PCR products were analyzed. The reads were then aligned at the junction between the HYG sequence and the telomere repeats. Wild-type TTAGGG repeats were colored orange and variant telomere repeats were colored in darker orange (FIG. 3A). Some of these variants arose due to errors in sequencing. An error rate similar to the published error rate of PACBIO® sequencing, 10-15% was observed. The errors were uniformly distributed over the reference sequence, dominated by point insertions and deletions, as expected for PACBIO® sequencing. There were three regions of divergent sequence in the original construct that are evident as darker orange stripes in the aligned reads (see for reference, in vitro IScelrette). These are small variation in TTAGGG sequence in the original SL13 clone and serve as useful internal reference points.
The original STELA protocol used for human cells (Baird et al., 2004, Hum Mol Genet 13, 1515-1524) was modified to measure telomere lengths on the de novo end of chr4 in SL13 cells. Briefly, genomic DNA was extracted using Puregene Core Kit A ^TM (Qiagen). 4 μg of genomic DNA was digested with SphI (NEB) and later diluted to 10 ng/μl in water. For the in vitro IScerette sample, genomic DNA was digested with SphI and I-SceI (NEB) prior to ligation. The ligation was carried out at 35° C. for at least 12 hrs in a volume of 10 μl containing 10 ng of digested genomic DNA, 0.9 μM of telorette linkers (mixture of telorette 1 to 6) or IScerette linker and 0.5 U of T4 DNA ligase (NEB) in 1× T4 ligation buffer. […]

SMILES	cell cycle phase of arrest (SL13 cells [1])	I-Sce1 expression in cells arrested at different phases (HA-tagged I-Sce1)	'smear' representative of de novo telomere addition (SL13 cells [2])	elongation beyond the chr4 I-Sce1-induced cut base line ([3]; Southern blot analysis of STELA PCR products, 400 nM flavopiridol)	PacBio reads with de novo telomere addition in cells held in G2/M phase ([3]; 200 ng/ml colcemid, 48 hrs)
Cc1cn([C@H]2C[C@H](O)[C@@H](CO)O2)c(=O)[nH]c1=O [thymidine]	G1/early S phase	no significant difference	even less ‘smear’		
CN1CC[C@H](c2c(O)cc(O)c3c(=O)cc(-c4ccccc4Cl)oc23)[C@H](O)C1 [flavopiridol]				minimal elongation	
CN[C@H]1CCc2cc(OC)c(OC)c(OC)c2-c2ccc(OC)c(=O)cc21 [colcemid]	arrested in G2/M phase	no significant difference			significant percentage of PacBio® reads with de novo telomere addition
